The record followed here is patent publication US20220112204A1, “SUBSTITUTED DIHYDROPYRANOPYRIMIDINE COMPOUNDS AS KRAS INHIBITORS” (ACCUTAR BIOTECHNOLOGY INC., priority 2020, published 2022).

Like-named read-outs stand apart in the source and are kept apart here.

The target in assay [1] is T1, KRAS-G12C mutant (Homo sapiens, UniProt P01116, G12C). Briefly: Gel shift assay (SDS-PAGE) for covalent modification of KRAS G12C. In kind it is binding. Particulars: 0.5 μM compound, 1 μM GDP-bound KRAS G12C, 25° C., 5 minutes, shift indicative of covalent cysteine conjugation. The method, then:
0.5 μM compounds were incubated with 1 μM GDP-bound untagged KRAS (G12C or wild type) proteins at 25° C. for 5 minutes in 40 μl reaction buffer (50 mM Tris, pH 7.5, 100 mM NaCl, 1 mM MgCl2, 1 mM DTT). The reactions were quenched with 10 μI SDS-PAGE sample loading buffer (250 mM Tris-HCl, pH 6.8, 10% SDS, 0.5% bromophenol blue, 50% glycerol and 50 mM DTT) and then analyzed via SDS-PAGE using 4%-20% gradient polyacrylamide gel followed by Coomassie blue stain.
FIG. 1 illustrates mobility change of KRAS-G12C mutant or wild type proteins on SDS-PAGE after 5 minutes of coincubation at 25° C. with exemplary compounds of the present disclosure, indicative of covalent cysteine conjugation.
Table 3 summarizes molecular weight shift of KRAS-G12C mutant on SDS-PAGE after 5 mins of coincubation at 25° C. with exemplary compounds of the present disclosure, indicative of covalent cysteine conjugation.

Assay [2] concerns the target T1, KRAS-G12C mutant. Briefly: TR-FRET assay of SOS1-assisted KRAS GDP/GTP exchange. In kind it is biochemical. The method, then:
GDP form of 6*His tagged KRAS-G12C was diluted to 40 nM and incubated with 8 nM LanthaScreen™ Elite Terbium-anti-HIS Antibody (Thermo, catalog number PV5863) in reaction buffer containing 20 mM Tris, pH 7.5, 100 mM NaCl, 1 mM DTT, 0.1% Tween20, 0.05% BSA, 2% DMSO, 1 mM MgCl2. After 1 hour-incubation at 4° C., proteins were placed in 384 well plate (PerkinElmer, PROXIPLATE-384 PLUS). Then compounds with different concentrations were added to the proteins. BODIPY labeled GTP (Thermo, catalog number G12411) and SOS-1 (or reaction buffer as control) were then added to reactions at 200 nM and 1 μM to trigger the exchange of GDP to BODIPY-GTP. TR-FRET emission signals were determined at 520 nm and 620 nm on a Envision® Multilabel Plate Reader (PerkinElmer) using a 337 nm laser as light source. All data were analyzed and plotted using Graph Pad Prism software (version 8.0.1). Raw TR-FRET data were converted to percentage of inhibition (relative to DMSO) using the following equations: […]
b) For a given test compound concentration X:
Signal (X)=Emission ratio (SOS-1 & GTP)—Emission ratio (buffer & GTP)
c) Percentage of inhibition at concentration X=[1−Signal(X)/Signal (DMSO)]*100%
The […] values were determined by nonlinear regression of plots of [inhibitor] vs. percentage of inhibition with variable slope. Table 4 summarizes inhibition of SOS1-assisted GDP/GTP exchanging activity of KRAS-G12C mutant with exemplary compounds of the present disclosure.

In assay [3] the test system is phospho-ERK1/2 (Thr202/Tyr204) in MIA PaCa-2 cell line. Briefly: pERK and ERK Western blot analysis, MIA PaCa-2. In kind it is cell-based. The settings on record: Homo sapiens. The method, then: (§1) MIA PaCa-2 (ATCC), NCI-H358 (ATCC), NCI-H23 (ATCC), SW837 and A549 (ATCC) cells were plated in 24-well plates at 2×10^5cells/well in RPMI growth medium containing 10% FBS and 1× Penicillin Streptomycin. They were then incubated at 37° C. overnight. The following day, the test compound was administered to the cells by using 1000× compound stock solution prepared in DMSO at various concentrations. After administration of the compound, the cells were then incubated at 37° C. for 4 hours. Upon completion, the cells were washed with PBS and protein was collected in Laemmli sample buffer (1×; VWR International). Proteins in cell lysate were separated by SDS-PAGE and transferred to Odyssey nitrocellulose membranes (Licor) with iblot® dry blotting transfer system (ThermoFisher). Nonspecific binding was blocked by incubating membranes with Intercept Blocking Buffer (Licor) for 1 hour at room temperature with gentle shaking. The membranes were then incubated overnight at 4° C. with primary antibodies rabbit anti-phospho p44/42 MAPK (Erk1/2) (1:2,000, Cell Signaling, 4370) and mouse anti-p44/42 MAPK (Erk1/2) (1:1,000, Cell Signaling, 4696) diluted in Intercept Blocking Buffer containing 0.1% Tween 20. After washing 3 times with TBS-T, the membranes were incubated with IRDye® 800CW goat anti-rabbit IgG (1:20,000, Licor) or IRDye® 680CW goat anti-mouse IgG (1:20,000, Licor) for 1 hour. After TBS-T washes, membranes were rinsed in TBS and scanned on Odyssey® CLx Imaging System (Licor). The bands were quantified using Image Studio™ Software (Licor).

The test system of assay [4] is phospho-ERK1/2 (Thr202/Tyr204) in NCI-H23 cells. Briefly: pERK and ERK Western blot analysis, NCI-H23. Particulars: Homo sapiens; NCI-H23, KRAS G12C, 4 hours. In kind it is cell-based. The method, then:
as §1, with “After washing 3 times with TBS-T, the membranes were incubated with IRDye® 800CW goat anti-rabbit IgG (1:20,000, Licor) or IRDye® 680CW goat anti-mouse IgG (1:20,000, Licor) for 1 hour. After TBS-T washes, membranes were rinsed in TBS and scanned on Odyssey® CLx Imaging System (Licor).” left out

For assay [5], the system named is phospho-ERK1/2 (Thr202/Tyr204) in NCI-H358 cells. Briefly: pERK and ERK Western blot analysis, NCI-H358. Type of assay: cell-based. Particulars: Homo sapiens; NCI-H358, KRAS G12C, 4 hours. The method, then: as §1, with “After washing 3 times with TBS-T, the membranes were incubated with IRDye® 800CW goat anti-rabbit IgG (1:20,000, Licor) or IRDye® 680CW goat anti-mouse IgG (1:20,000, Licor) for 1 hour. After TBS-T washes, membranes were rinsed in TBS and scanned on Odyssey® CLx Imaging System (Licor).” left out

The test system of assay [6] is phospho-ERK1/2 (Thr202/Tyr204) in SW837 cells. The assay is described as follows: pERK and ERK Western blot analysis, SW837. In kind it is cell-based. The settings on record: Homo sapiens; SW837, KRAS G12C, 4 hours. The method, then:
as §1, with “After washing 3 times with TBS-T, the membranes were incubated with IRDye® 800CW goat anti-rabbit IgG (1:20,000, Licor) or IRDye® 680CW goat anti-mouse IgG (1:20,000, Licor) for 1 hour. After TBS-T washes, membranes were rinsed in TBS and scanned on Odyssey® CLx Imaging System (Licor).” left out

The test system of assay [7] is phospho-ERK1/2 (Thr202/Tyr204) in A549 cells. Briefly: pERK and ERK Western blot analysis, A549. Type of assay: cell-based. The settings on record: Homo sapiens; A549, KRAS G12S, 4 hours. The method, then: as §1, with “After washing 3 times with TBS-T, the membranes were incubated with IRDye® 800CW goat anti-rabbit IgG (1:20,000, Licor) or IRDye® 680CW goat anti-mouse IgG (1:20,000, Licor) for 1 hour. After TBS-T washes, membranes were rinsed in TBS and scanned on Odyssey® CLx Imaging System (Licor).” left out

Assay [8] relates to MIA PaCa-2 cell line. The assay is described as follows: 3D cell growth assay (CellTiter-Glo), MIA PaCa-2. In kind it is cell-based. The settings on record: Homo sapiens, MIA PaCa-2, 144 h, 6 days, read-out: 3D growth inhibition GI50. The method, then:
(§2) MIA PaCa-2 (ATCC), NCI-H358 (ATCC), NCI-H23 (ATCC), SW837 and A549 (ATCC) cells were plated in round bottom 96-well spheroid microplates (Corning, 4520) at 3000 cells/well in 90 ul of RPMI growth medium containing 10% FBS and 1% Penicillin Streptomycin. Cells were incubated at 37° C. overnight. The following day, the test compound was administered to the cells by using 10× compound stock solution prepared in growth medium at various concentrations. After administration of the compound, cells were then incubated at 37° C. for 6 days. Before CellTiter-Glo assay, the plates were equilibrated at room temperature for approximately 10 minutes. 100 ul of CellTiter-Glo® Reagent (Promega, G7573) was added to each well. The plates were then incubated at room temperature for 10 minutes and luminescence was recorded by EnSpire plate reader (PerkinElmer). Table 6 illustrates growth inhibition (G150) by exemplary compounds 1-10 of the present disclosure in a MIA PaCa-2 cell line 6 days after administration in 3D cell culture. A: >0.1 nM and <1 nM; B: >=1 nM and <10 nM; C: >=10 nM and <100 nM; D: >100 nM.

Assay [9] relates to NCI-H23 cells. Briefly: 3D cell growth assay (CellTiter-Glo), NCI-H23. The settings on record: Homo sapiens, 144 h, NCI-H23, KRAS G12C, 6 days, read-out: 3D growth inhibition GI50. Type of assay: cell-based. The method, then:
as §2

Assay [10] relates to NCI-H358 cells. The assay is described as follows: 3D cell growth assay (CellTiter-Glo), NCI-H358. In kind it is cell-based. The settings on record: Homo sapiens, 144 h, NCI-H358, KRAS G12C, 6 days, read-out: 3D growth inhibition GI50. The method, then: as §2
For assay [11], the system named is SW837 cells. Briefly: 3D cell growth assay (CellTiter-Glo), SW837. Type of assay: cell-based. Particulars: Homo sapiens, 144 h, SW837, KRAS G12C, 6 days, read-out: 3D growth inhibition GI50. The method, then: as §2
Assay [12] concerns A549 cells. The assay is described as follows: 3D cell growth assay (CellTiter-Glo), A549. The settings on record: Homo sapiens, 144 h, A549, KRAS G12S, 6 days, read-out: 3D growth inhibition GI50. In kind it is cell-based. The method, then:
as §2

[13] abbreviates: MIA PaCa-2 cell line, 4 hours after incubation, read-out: 2D pERK IC50.
Setting [14] is: MIA PaCa-2 cell line, 3D cell culture.

On to `C=C(F)C(=O)N1CCN(c2nc(OCC34CCCN3CCC4)nc3c2CO[C@H](c2cccc4cccc(Cl)c24)C3)C[C@@H]1CC#N` (single isomer, unassigned) [Compound 55], for which the “KRAS-G12C molecular weight shift” value in assay [1] is reported as “Yes”. Moreover, the half-inhibitory concentration (IC50) was 22 nM in assay [2]; 10.1 nM in assay [3] (MIA PaCa-2, MiaPaCa2, KRAS G12C, 4 hours, read-out: pERK IC50); 1 to 10 nM in assay [3] (setting [13]); 6.4 nM in assay [4]; 12 nM in [5]; 5.9 nM in assay [6]. The half-inhibitory concentration (IC50) in [7] is above 30000 nM. Moreover, the GI50 in assay [8] (setting [14]) was 0.1 to 1 nM; in assay [8] (MiaPaCa2, KRAS G12C, 3D), 0.8 nM; in assay [9], 8.4 nM; in assay [10], 0.7 nM; in assay [11], 8.6 nM; in [12], above 300 nM.

Regarding `C=C(F)C(=O)N1CCN(c2nc(OC[C@@]34CCCN3C[C@H](F)C4)nc3c2CO[C@@H](c2cccc4cccc(Cl)c24)C3)C[C@@H]1CC#N` (single isomer, unassigned) [Compound 63], in assay [1], the “KRAS-G12C molecular weight shift” value is “No”. For the same molecule, the IC50 in assay [2] was 6930 nM; in assay [3] (setting [13]), above 100 nM. In [8] (setting [14]), the GI50 lay within 10 to 100 nM.

Consider `C=C(F)C(=O)N1CCN(c2nc(OCC3(CN4CCCC4)CC3)nc3c2CO[C@H](c2cccc4cccc(Cl)c24)C3)C[C@@H]1CC#N` (single isomer, unassigned) [Compound 73], for which the “KRAS-G12C molecular weight shift” value in assay [1] was “Yes”. For the same molecule, the figures for the half-inhibitory concentration (IC50) in assay [2] and in assay [3] (setting [13]) were 112 nM and 10 to 100 nM, respectively. For the same molecule, the GI50 in assay [8] (setting [14]) was in the range of 10 to 100 nM.

For `C=C(F)C(=O)N1CCN(c2nc(OC[C@@]34CCCN3C[C@H](F)C4)nc3c2COC(c2cccc4cccc(Cl)c24)C3)C[C@@H]1CC#N` (stereo partly drawn) [Compound 62, 2-((2S)-4-(7-(8-chloronaphthalen-1-yl)-2-(((2R,7aS)-2-fluorotetrahydro-1H-pyrrolizin-7a(5H)-yl)methoxy)-7,8-dihydro-5H-pyrano[4,3-d]pyrimidin-4-yl)-1-(2-fluoroacryloyl)piperazin-2-yl)acetonitrile], in assay [1], the “KRAS-G12C molecular weight shift” value was “Yes”. For the same molecule, the results for the IC50 in assay [2] and in assay [3] (setting [13]) were 40 nM and 1 to 10 nM, respectively. Besides, in assay [8] (setting [14]), the GI50 is 0.1 to 1 nM.
